Test [1] has as its system larvae of the mustard beetle (Phaedon cochleariae). Kind of test: Phaedon test (PHAECO spray treatment). The class given is in vivo. Conditions: 4 ppm active compound, sprayed Chinese cabbage discs. As to the method:
Phaedon Test (PHAECO Spray Treatment)
• Solvents: 78 parts by weight of acetone • 1.5 parts by weight of dimethylformamide • Emulsifier: 0.5 part by weight of alkylaryl polyglyycol ether
After the desired period of time, the effect in % is determined. 100% means that all beetle larvae have been killed; 0% means that none of the beetle larvae have been killed.

Test [2] has as its system caterpillars of the army worm (Spodoptera frugiperda). Briefly: Spodoptera frugiperda test (SPODFR spray treatment). Format: in vivo. Particulars: Example I; 4 ppm active compound; sprayed maize leaf discs. As to the method: Spodoptera frugiperda Test (SPODFR Spray Treatment)
• Solvents: 78.0 parts by weight of acetone • 1.5 parts by weight of dimethylformamide • Emulsifier: 0.5 part by weight of alkylaryl polyglyycol ether
After the desired period of time, the effect in % is determined. 100% means that all caterpillars have been killed; 0% means that none of the caterpillars have been killed.

As to `CC[C@H](C)[C@H]1OC2(C=C[C@@H]1C)C[C@@H]1C[C@@H](C/C=C(\C)[C@@H](OC3CC(OC)C(OC(=O)C(C)n4cccn4)C(C)O3)[C@@H](C)/C=C/C=C3\CO[C@@H]4[C@H](O)C(C)=CC(C(=O)O1)[C@]34O)O2` (some centres unmarked) [Example 62], in test [1] (Example G), the “Kill rate in % after 7 days” value was 100%.

Regarding `CC[C@H](C)[C@H]1OC2(C=C[C@@H]1C)C[C@@H]1C[C@@H](C/C=C(\C)[C@@H](OC3CC(OC)C(OC(=O)CC4CCCO4)C(C)O3)[C@@H](C)/C=C/C=C3\CO[C@@H]4[C@H](O)C(C)=CC(C(=O)O1)[C@]34O)O2` (some centres unmarked) [Example 31], the “Kill rate in % after 7 days” value in test [1] (Example G) is 100%. For the compound `CC[C@H](C)[C@H]1OC2(C=C[C@@H]1C)C[C@@H]1C[C@@H](C/C=C(\C)[C@@H](OC3CC(OC)C(OC(=O)Cc4csc(-c5ccncc5)n4)C(C)O3)[C@@H](C)/C=C/C=C3\CO[C@@H]4[C@H](O)C(C)=CC(C(=O)O1)[C@]34O)O2` (some centres unmarked) [Example 46], the “Kill rate in % after 5 days” value in test [2] was 100%. In the case of `CC[C@H](C)[C@H]1OC2(C=C[C@@H]1C)C[C@@H]1C[C@@H](C/C=C(\C)[C@@H](OC3CC(OC)C(OC(=O)C(C)n4ccnc4)C(C)O3)[C@@H](C)/C=C/C=C3\CO[C@@H]4[C@H](O)C(C)=CC(C(=O)O1)[C@]34O)O2` (some centres unmarked) [Example 58], the “Kill rate in % after 7 days” value in test [1] (Example G) came out at 100%.

On to `CC[C@H](C)[C@H]1OC2(C=C[C@@H]1C)C[C@@H]1C[C@@H](C/C=C(\C)[C@@H](OC3CC(OC)C(OC(=O)CN4CCC(NC(=O)OC(C)(C)C)CC4)C(C)O3)[C@@H](C)/C=C/C=C3\CO[C@@H]4[C@H](O)C(C)=CC(C(=O)O1)[C@]34O)O2` (some centres unmarked) [Example 51], for which, in test [1] (Example G), the “Kill rate in % after 7 days” value came to 100%. On to `CC[C@H](C)[C@H]1OC2(C=C[C@@H]1C)C[C@@H]1C[C@@H](C/C=C(\C)[C@@H](OC3CC(OC)C(OC(=O)CN4CCN(C(=O)OC(C)(C)C)CC4)C(C)O3)[C@@H](C)/C=C/C=C3\CO[C@@H]4[C@H](O)C(C)=CC(C(=O)O1)[C@]34O)O2` (some centres unmarked) [Example 53, 4′-O-{[4-(tert-Butoxycarbonyl)piperazin-1-yl]acetyl}-avermectin B1 monosaccharide], for which the “Kill rate in % after 7 days” value in test [1] (Example G) worked out at 100%.

With `CC[C@H](C)[C@H]1OC2(C=C[C@@H]1C)C[C@@H]1C[C@@H](C/C=C(\C)[C@@H](OC3CC(OC)C(OC(=O)Cn4c(C)ccc4C)C(C)O3)[C@@H](C)/C=C/C=C3\CO[C@@H]4[C@H](O)C(C)=CC(C(=O)O1)[C@]34O)O2` (some centres unmarked) [Example 44], in test [1] (Example G), the “Kill rate in % after 7 days” value was 100%. For the compound `CC[C@H](C)[C@H]1OC2(C=C[C@@H]1C)C[C@@H]1C[C@@H](C/C=C(\C)[C@@H](OC3CC(OC)C(OC(=O)CN4CCNCC4)C(C)O3)[C@@H](C)/C=C/C=C3\CO[C@@H]4[C@H](O)C(C)=CC(C(=O)O1)[C@]34O)O2` (some centres unmarked) [Example 101, 4′-O-(piperazin-1-ylacetyl)-avermectin B1 monosaccharide], the “Kill rate in % after 7 days” value in test [1] (Example G) amounted to 100%. In the case of `CC[C@H](C)[C@H]1OC2(C=C[C@@H]1C)C[C@@H]1C[C@@H](C/C=C(\C)[C@@H](OC3CC(OC)C(OC(=O)COC)C(C)O3)[C@@H](C)/C=C/C=C3\CO[C@@H]4[C@H](O)C(C)=CC(C(=O)O1)[C@]34O)O2` (some centres unmarked) [Example 30], the “Kill rate in % after 5 days” value in test [2] came to 100%. Take `CC[C@H](C)[C@H]1OC2(C=C[C@@H]1C)C[C@@H]1C[C@@H](C/C=C(\C)[C@@H](OC3CC(OC)C(OC(=O)Cn4nc(OC)n(C)c4=O)C(C)O3)[C@@H](C)/C=C/C=C3\CO[C@@H]4[C@H](O)C(C)=CC(C(=O)O1)[C@]34O)O2` (some centres unmarked) [Example 64]: in test [1] (Example G), the “Kill rate in % after 7 days” value was 100%. `CC[C@H](C)[C@H]1OC2(C=C[C@@H]1C)C[C@@H]1C[C@@H](C/C=C(\C)[C@@H](OC3CC(OC)C(OC(=O)c4ccc(OC(F)(F)F)cc4)C(C)O3)[C@@H](C)/C=C/C=C3\CO[C@@H]4[C@H](O)C(C)=CC(C(=O)O1)[C@]34O)O2` (some centres unmarked) [Example 97]: the “Kill rate in % after 5 days” value in test [2] is on record as 33%. Consider `CC[C@H](C)[C@H]1OC2(C=C[C@@H]1C)C[C@@H]1C[C@@H](C/C=C(\C)[C@@H](OC3CC(OC)C(OC(=O)c4ccc(F)cc4)C(C)O3)[C@@H](C)/C=C/C=C3\CO[C@@H]4[C@H](O)C(C)=CC(C(=O)O1)[C@]34O)O2` (some centres unmarked) [Example 99], for which the “Kill rate in % after 5 days” value in test [2] is listed as 100%. For `CC[C@H](C)[C@H]1OC2(C=C[C@@H]1C)C[C@@H]1C[C@@H](C/C=C(\C)[C@@H](OC3CC(OC)C(OC(=O)Cc4ccccn4)C(C)O3)[C@@H](C)/C=C/C=C3\CO[C@@H]4[C@H](O)C(C)=CC(C(=O)O1)[C@]34O)O2` (some centres unmarked) [Example 65], the “Kill rate in % after 7 days” value in test [1] (Example G) was determined as 100%. As to `CC[C@H](C)[C@H]1OC2(C=C[C@@H]1C)C[C@@H]1C[C@@H](C/C=C(\C)[C@@H](OC3CC(OC)C(OC(=O)C4CC4(Cl)Cl)C(C)O3)[C@@H](C)/C=C/C=C3\CO[C@@H]4[C@H](O)C(C)=CC(C(=O)O1)[C@]34O)O2` (some centres unmarked) [Example 37], the “Kill rate in % after 7 days” value in test [1] (Example G) is reported as 100%.

As for `CC[C@H](C)[C@H]1OC2(C=C[C@@H]1C)C[C@@H]1C[C@@H](C/C=C(\C)[C@@H](OC3CC(OC)C(OC(=O)Cn4ccnc4)C(C)O3)[C@@H](C)/C=C/C=C3\CO[C@@H]4[C@H](O)C(C)=CC(C(=O)O1)[C@]34O)O2` (some centres unmarked) [Example 49], the “Kill rate in % after 5 days” value in test [2] came to 100%. `CC[C@H](C)[C@H]1OC2(C=C[C@@H]1C)C[C@@H]1C[C@@H](C/C=C(\C)[C@@H](OC3CC(OC)C(OC(=O)CCn4ccnc4)C(C)O3)[C@@H](C)/C=C/C=C3\CO[C@@H]4[C@H](O)C(C)=CC(C(=O)O1)[C@]34O)O2` (some centres unmarked) [Example 86]: the “Kill rate in % after 5 days” value in test [2] was 100%. Turning to `CC[C@H](C)[C@H]1OC2(CC[C@@H]1C)C[C@@H]1C[C@@H](C/C=C(\C)[C@@H](OC3CC(OC)C(OC(=O)Cn4cccn4)C(C)O3)[C@@H](C)/C=C/C=C3\CO[C@@H]4[C@H](O)C(C)=CC(C(=O)O1)[C@]34O)O2` (some centres unmarked) [Example 22], in test [1] (Example G), the “Kill rate in % after 7 days” value is listed as 100%. Consider `CC[C@H](C)[C@H]1OC2(C=C[C@@H]1C)C[C@@H]1C[C@@H](C/C=C(\C)[C@@H](OC3CC(OC)C(OC(=O)Cn4ccnn4)C(C)O3)[C@@H](C)/C=C/C=C3\CO[C@@H]4[C@H](O)C(C)=CC(C(=O)O1)[C@]34O)O2` (some centres unmarked) [Example 3], for which the “Kill rate in % after 7 days” value in test [1] (Example D) is listed as 80%.

On to `CC[C@H](C)[C@H]1OC2(C=C[C@@H]1C)C[C@@H]1C[C@@H](C/C=C(\C)[C@@H](OC3CC(OC)C(OC(=O)Cn4nc(C)n(C)c4=O)C(C)O3)[C@@H](C)/C=C/C=C3\CO[C@@H]4[C@H](O)C(C)=CC(C(=O)O1)[C@]34O)O2` (some centres unmarked) [Example 63], for which, in test [1] (Example G), the “Kill rate in % after 7 days” value is recorded as 100%. For the compound `CCC(C)C1OC2(C=CC1C)CC1CC(CC=C(C)C(OC3CC(OC)C(OC(=O)C(C)N4CCN(C(=O)OC(C)(C)C)CC4)C(C)O3)C(C)C=CC=C3COC4C(O)C(C)=CC(C(=O)O1)C34O)O2` (mixture of isomers) [Example 77], the “Kill rate in % after 7 days” value in test [1] (Example G) is given as 100%. Same read-out and setting: under `CC[C@H](C)[C@H]1OC2(C=C[C@@H]1C)C[C@@H]1C[C@@H](C/C=C(\C)[C@@H](OC3CC(OC)C(OC(=O)CN4CCOCC4)C(C)O3)[C@@H](C)/C=C/C=C3\CO[C@@H]4[C@H](O)C(C)=CC(C(=O)O1)[C@]34O)O2` (some centres unmarked) [Example 79] stands 100%. Same read-out and setting: as for `CC[C@H](C)[C@H]1OC2(C=C[C@@H]1C)C[C@@H]1C[C@@H](C/C=C(\C)[C@@H](OC3CC(OC)C(OC(=O)C(C)n4ccnn4)C(C)O3)[C@@H](C)/C=C/C=C3\CO[C@@H]4[C@H](O)C(C)=CC(C(=O)O1)[C@]34O)O2` (some centres unmarked) [Example 61], the figure is 100%. As to `CC[C@H](C)[C@H]1O[C@]2(C=C[C@@H]1C)C[C@@H]1C[C@@H](C/C=C(\C)[C@@H](O[C@H]3C[C@H](OC)[C@@H](OC(=O)c4ccc(Cl)cc4)[C@H](C)O3)[C@@H](C)/C=C/C=C3\CO[C@@H]4[C@H](O)C(C)=C[C@@H](C(=O)O1)[C@]34O)O2` [4′-O-(4-chlorobenzoyl)-4′-O-de(2,6-dideoxy-3-O-methyl-α-L-arabino-hexopyranosyl)-5-O-demethyl-avermectin A1a, reference compound], in test [2], the “Kill rate in % after 5 days” value was determined as 0%. Regarding `CC[C@H](C)[C@H]1OC2(C=C[C@@H]1C)C[C@@H]1C[C@@H](C/C=C(\C)[C@@H](OC3CC(OC)C(OC(=O)C(C)n4ccnn4)C(C)O3)[C@@H](C)/C=C/C=C3\CO[C@@H]4[C@H](O)C(C)=CC(C(=O)O1)[C@]34O)O2` (some centres unmarked) [Example 56], the “Kill rate in % after 7 days” value in test [1] (Example G) was determined as 100%. `CC[C@H](C)[C@H]1OC2(C=C[C@@H]1C)C[C@@H]1C[C@@H](C/C=C(\C)[C@@H](OC3CC(OC)C(OC(=O)COc4ccc(Cl)cc4)C(C)O3)[C@@H](C)/C=C/C=C3\CO[C@@H]4[C@H](O)C(C)=CC(C(=O)O1)[C@]34O)O2` (some centres unmarked) [Example 39]: in test [2], the “Kill rate in % after 5 days” value was 100%. Regarding `CC[C@H](C)[C@H]1OC2(C=C[C@@H]1C)C[C@@H]1C[C@@H](C/C=C(\C)[C@@H](OC3CC(OC)C(OC(=O)Cn4nc(C(F)(F)F)cc4OC)C(C)O3)[C@@H](C)/C=C/C=C3\CO[C@@H]4[C@H](O)C(C)=CC(C(=O)O1)[C@]34O)O2` (some centres unmarked) [Example 41], the “Kill rate in % after 7 days” value in test [1] (Example G) is 83%.

As to `CC[C@H](C)[C@H]1OC2(C=C[C@@H]1C)C[C@@H]1C[C@@H](C/C=C(\C)[C@@H](OC3CC(OC)C(OC(=O)C4CCC(=O)N4)C(C)O3)[C@@H](C)/C=C/C=C3\CO[C@@H]4[C@H](O)C(C)=CC(C(=O)O1)[C@]34O)O2` (some centres unmarked) [Example 38], the “Kill rate in % after 5 days” value in test [2] is recorded as 100%. `CC[C@H](C)[C@H]1OC2(C=C[C@@H]1C)C[C@@H]1C[C@@H](C/C=C(\C)[C@@H](OC3CC(OC)C(OC(=O)Cc4c(C)noc4C)C(C)O3)[C@@H](C)/C=C/C=C3\CO[C@@H]4[C@H](O)C(C)=CC(C(=O)O1)[C@]34O)O2` (some centres unmarked) [Example 43]: in test [1] (Example G), the “Kill rate in % after 7 days” value is on record as 100%. On to `CC[C@H](C)[C@H]1OC2(C=C[C@@H]1C)C[C@@H]1C[C@@H](C/C=C(\C)[C@@H](OC3CC(OC)C(OC(=O)CNC)C(C)O3)[C@@H](C)/C=C/C=C3\CO[C@@H]4[C@H](O)C(C)=CC(C(=O)O1)[C@]34O)O2` (some centres unmarked) [Example 104], for which the “Kill rate in % after 7 days” value in test [1] (Example G) came out at 100%.

Source of the values: patent publication US8183351B2, “Avermectin derivatives” (Bayer Cropscience AG, priority 2006, dated 2012).
